# Data reported in paper PMC8636514, “Therapeutic potential of TRPM8 antagonists in prostate cancer” (Scientific Reports, 2021).
# Like-named read-outs stand apart in the source and are kept apart here.
# Molecular target: T1, human TRPM8 (Homo sapiens, UniProt Q7Z2W7)
# T1 construct: expressed in transfected cells; host or cells: HEK-293/TRPM8 exon1 K3 cells
# Experiment: Patch-clamp assay on TRPM8 channels (HEK-293/TRPM8 cells, menthol-evoked currents)
# Type: cell-based
# Description: Patch clamp experiments for compounds 4, 5 and 9 were done as described. HEK-293/TRPM8 exon 1 cells were seeded 3 or 4 days before experiment at a concentration of 4 and 2.5 million cells, respectively, onto a T225 flask. Before each experiment, cells were washed two times with D-PBS without Ca^2+/Mg^2+ (Euroclone, Milan, Italy) and trypsinized with trypsin−EDTA (Sigma-Aldrich; diluted 1/10). Cells were suspended in 25 mL of EX-CELL ACF CHO medium (Sigma-Aldrich, Milan, Italy), 0.625 mL of HEPES (Lonza, Walkersville, USA), 0.25 mL of 100 × penicillin/streptomycin (Lonza, Walkersville, USA), 0.1 mL of soybean trypsin inhibitor 10 mg/mL (Sigma-Aldrich), and placed on the automated patch-clamp platform (QPatch 16X, Sophion Bioscience, Ballerup, Denmark). A stock solution of L-Menthol (1 M, 100% DMSO), used as reference agonist, was freshly prepared. A diluted stock of 300 mM was prepared from the 1 M stock in 100% DMSO, and a final dilution was obtained using the extracellular solution to give a working concentration of 300 μM (1:1000, 0.1% final DMSO concentration). Stock solutions of the testing compounds (10 mM; 100% DMSO; stored at − 20 °C) were freshly prepared, as well. Further dilution of these stock solutions to a final concentration of 300 μM was performed from the 10 mM stock in 100% DMSO, and the working dilutions were performed just before the experiments using the extracellular solution containing 300 μM menthol. The highest concentration tested was 300 nM, with serial dilutions (1:10). DMSO was balanced to keep it constant throughout all the solutions in the same experiment (0.2% final DMSO concentration). Standard whole-cell voltage clamp experiments were performed at room temperature using the multihole technology. For the voltage clamp experiments on human TRPM8, data were sampled at 2 kHz. After establishment of the seal and the passage in the whole cell configuration, the cells were subjected to a voltage ramp (20 ms step at − 60 mV; 100 ms ramp − 60/ + 100 mV; 20 ms step at + 100 mV; return to − 60 mV) every 4 s. The antagonistic effect on human TRPM8 current of target compounds was evaluated after application of the agonist (menthol, 300 μM), in the absence or presence of increasing concentrations of the compound under investigation. Outward current evoked by the voltage ramp, measured in the step at + 100 mV were measured. The intracellular solution contained (mM) 135 CsCl, 10 BAPTA, 10 HEPES, 4 Na2ATP (pH 7.2 with CsOH). The extracellular solution contained (mM) 145 NaCl, 4 KCl, 1 MgCl2, 2 CaCl2, 10 HEPES, 10 glucose (pH 7.4 with NaOH). TRPM8 modulation by final compounds 3 and 6 has been previously determined by patch clamp measurements[29],[30].
# T1 sequence (Q7Z2W7 whole entry): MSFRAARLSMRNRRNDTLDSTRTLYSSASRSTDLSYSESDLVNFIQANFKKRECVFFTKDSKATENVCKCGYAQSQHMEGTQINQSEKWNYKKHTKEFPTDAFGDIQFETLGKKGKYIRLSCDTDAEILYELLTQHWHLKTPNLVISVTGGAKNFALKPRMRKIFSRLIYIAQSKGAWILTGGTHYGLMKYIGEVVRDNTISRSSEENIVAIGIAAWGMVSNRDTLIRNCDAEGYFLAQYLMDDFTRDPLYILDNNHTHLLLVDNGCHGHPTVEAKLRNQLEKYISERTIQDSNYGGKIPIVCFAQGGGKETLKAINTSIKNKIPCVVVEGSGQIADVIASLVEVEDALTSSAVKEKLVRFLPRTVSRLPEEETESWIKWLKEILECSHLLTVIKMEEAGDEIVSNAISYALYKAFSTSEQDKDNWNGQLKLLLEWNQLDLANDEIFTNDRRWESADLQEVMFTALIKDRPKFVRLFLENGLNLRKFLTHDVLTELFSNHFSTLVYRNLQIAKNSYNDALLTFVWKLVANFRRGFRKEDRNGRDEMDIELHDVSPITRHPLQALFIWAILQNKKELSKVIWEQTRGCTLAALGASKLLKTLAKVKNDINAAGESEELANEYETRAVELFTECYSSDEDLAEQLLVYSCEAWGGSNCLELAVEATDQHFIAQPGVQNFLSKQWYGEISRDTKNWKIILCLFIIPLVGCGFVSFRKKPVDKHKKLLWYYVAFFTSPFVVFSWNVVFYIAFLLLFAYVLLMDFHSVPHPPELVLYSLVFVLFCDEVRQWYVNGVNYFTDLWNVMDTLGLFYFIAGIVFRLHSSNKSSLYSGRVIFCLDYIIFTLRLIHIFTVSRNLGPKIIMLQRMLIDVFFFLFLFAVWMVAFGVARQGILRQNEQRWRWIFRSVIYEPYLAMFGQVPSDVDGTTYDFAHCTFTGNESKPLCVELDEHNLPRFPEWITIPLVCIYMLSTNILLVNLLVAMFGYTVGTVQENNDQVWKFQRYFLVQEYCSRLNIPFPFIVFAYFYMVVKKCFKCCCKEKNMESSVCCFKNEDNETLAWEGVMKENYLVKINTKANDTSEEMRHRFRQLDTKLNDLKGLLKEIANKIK
compound,measurement,setting,value
c1ccc(COc2ccc3[nH]cc(CCNCc4ccc(Oc5ccccc5)cc4)c3c2)cc1 [Compound 4],IC50,"300 µM menthol-evoked currents, read-out: Potency IC50",204 ± 15 nM
same,IC50,"TRPM8 antagonist, menthol-evoked currents, one range for both compounds, read-out: IC50",204 to 340 nM
same,inhibitory effect on menthol-evoked TRPM8 currents,dependence on concentration,concentration-dependent
